Reference: US20140243411A1 (priority 2011, published 2014)

Experiments:
[1] = In vitro percutaneous permeation of C2E5 nonaqueous gel spiked with [14C]-C2E5; format: in vitro ADME, Sprague-Dawley (SD) rat
Protocol: An in vitro permeation study was carried out using a vertical diffusion cell system equipped with an autosampler (Hanson Microette Autosampling System, Hanson Research Co., USA). The area for permeation was 1.767 cm^2, and the receiver compartment volume was 7 mL. The experiments were run at 32° C. and stirred magnetically at 400 rpm. The receiver medium was 0.1M phosphate buffer (pH 7.4). SD rat skin samples were prepared by harvesting dorsal skin samples from freshly euthanized (<1 h) SD rats (n=9, 200-300 g). The skin was shaved and the subcutaneous fat tissue was carefully peeled from the dermis layer to remove potential interference due to high levels of esterase activity in subcutaneous tissue. The processed skin samples were inspected visually for membrane integrity. The qualified skin samples were stored at −20° C. until use. The SD rat skin samples were first allowed to thaw for at least 1 h in the receiver medium, and then mounted and clamped between the receiver and donor compartments of the diffusion cells. […] ([^14C]-C2E5; 50 mCi/mmol) labeled at carbon-1 (carbonyl carbon) was purchased from American Radiolabeled Chemicals, Inc., St. Louis, Mo.).
Collected samples were dispensed into Ultima Gold™ scintillation cocktail at a ratio of 100 μL:10 mL and assayed directly for radioactivity by liquid scintillation counting (LSC) using a Packard TriCarb 3100TR (PerkinElmer Life and Analytical Sciences) with automatic quench correction. Samples were counted for 10 min or until a 5% confidence level was achieved. The samples were subsequently assayed for intact C2E5 and its metabolites using HPLC-FSA. The cumulative releases of C2E5 and its metabolites were plotted as a function of time.
Fick's law (Equation 4) has been used as a simple model to describe the steady-state diffusion of drug through the skin:
where Jss=steady-state flux (mol/hr); D=drug diffusivity (cm^2/hr); h=membrane thickness (cm); Ksc/veh=drug's stratum corneum-vehicle partition coefficient; Cveh=drug concentration (mg/cm^3) in the vehicle; and A=surface area (cm^2). The cumulative amount of C2E5 and its metabolites permeated through the SD rat skin versus time is presented in FIG. 1, The overall concentrations of C2E5 and its metabolites in receiver compartment at different time points were calculated based on Equation 5.
The concentrations of C2E5 and its metabolites in the collected samples from the receiver compartment at different time points were analyzed by HPLC-FSA.

[2] = system: rats contaminated with ^241Am; experiment: Radionuclide decorporation efficacy study in rats contaminated with 241Am (Example 10): excretion, tissue content, liver and skeleton burden; format: in vivo, SD rats
Protocol: All animal studies were conducted according to a protocol approved by the University of North Carolina at Chapel Hill Institutional Animal Care and Use Committee (IACUC). Ten-week-old adult female SD rats weighing from 200 to 300 g were used in these studies (Charles River Labs, Raleigh, N.C.). Food and water were given ad libitum. The animal room was kept at a controlled temperature (23° C.) and light cycle (light exposure from 8 AM to 8 PM). For the duration of the study, the rats were housed in metabolic cages individually with daily urine and feces collection until euthanasia on Day 7.
To evaluate the efficacy of transdermal delivery of the C2E5 nonaqueous gel, a radionuclide decorporation efficacy study was conducted in rats contaminated with ^241Am. Adult female SD rats were anesthetized with 2-3% isoflurane. Dorsal skin between the cervical vertebrae and anterior thoracic vertebrae was clipped with caution before all animals were contaminated with [^241Am]-Americium nitrate solution (250 nCi, 0.1 mL) via an i.m. injection in anterior thigh muscle. The C2E5 nonaqueous gel was applied at dose of 1000 mg/kg using a cotton swap to a 6 cm^2 (2 cm×3 cm) area of the clipped dorsal region immediately after contamination. A jacket with plastic dorsal insert (VWR International) was placed on the rat to protect the gel application region. The mass of C2E5 gel applied was recorded for each animal to permit the actual dose determination. The animals were housed in metabolic cages individually after C2E5 treatment and were euthanized 7 days after contamination. Positive and negative controls included animals administered Ca-DTPA intravenously and animals without any treatment. The animals were observed once daily and their body weights recorded at pre-dose and prior to necropsy, Urine and feces were collected daily until euthanasia, when the liver, kidneys, both femurs and the muscle tissue from around the injection site were also collected. Cage washes were collected at the end of each experiment. As ˜35% of the decay of ^241Am is associated with photon emissions of 59.7 keV, ^241Am present in samples was quantified using a gamma counter (2470 Wizard 2, Perkin Elmer). The samples were counted for one minute using a 40-80 keV energy detection window and were background-corrected. Additionally, ^241Am activity was quantified in 2×0.1 mL aliquots of the dosing solution. For all samples, ^241Am content was expressed as a percentage of the initial dose.
where % ID represents the percent of injected dose. Where data for both femurs were available, an estimate of the total skeletal burden was made using the method of Volf with modification in which the counts in the contra-lateral femur were multiplied by 19 and added to the counts in the ipsi-lateral femur. The modification for the literature method was due to higher ^241Am content in ipsi-lateral femur as a result of i.m. injection in anterior thigh muscle.
Statistically significant differences among groups were determined using one-way ANOVA with Tukey's post hoc comparison. All measurements are expressed as mean±standard deviation (S.D.). The level of significance was set at p<0.05.

[3] = pH 7.4; Sueda et al.; cited from earlier work
[4] = rats, seven days following a single dose, Ca-DTPA 14 mg/kg i.v., C2E5 1000 mg/kg transdermal
[5] = seven days after single dose, Ca-DTPA 14 mg/kg i.v., C2E5 1000 mg/kg transdermal gel
[6] = seven days, 1000 mg/kg transdermal

## CCOC(=O)CN(CCN(CC(=O)OCC)CC(=O)OCC)CCN(CC(=O)OCC)CC(=O)OCC [Formulation C2E5, penta-substituted ethyl ester of DTPA]
[1]; at 8 h
  cumulative amount of C2E5 and its metabolites permeated through the rat skin: 1.98 μmol/cm^2
[1]; at 8 h, gel 6% EC10, 25% C2E5, 69% MIGLYOL 840
  initially applied C2E5 dose permeated through the rat skin (C2E5 and its metabolites): ~10%
[1]; at 23 h
  cumulative amount of C2E5 and its metabolites permeated through the rat skin: 3.55 μmol/cm^2
[1]; gel 6% EC10, 25% C2E5, 69% MIGLYOL 840
  diffusional lag time through SD rat skin: 0.33 h
[1]; steady-state between 2 h and 7 h, gel 6% EC10, 25% C2E5, 69% MIGLYOL 840
  Jss per unit area through SD rat skin: 0.276 μmol/cm^2/h
[2]; contra-lateral femur × 19 + ipsi-lateral femur, rats, seven days following a single dose, Ca-DTPA 14 mg/kg i.v. (n = 3), C2E5 1000 mg/kg transdermal
  Skeleton Burden (% of ID): 9.6 ± 0.9 % of ID
[2]; rats, seven days following a single dose, Ca-DTPA 14 mg/kg i.v. (one animal excluded), C2E5 1000 mg/kg transdermal
  Ipsi-lateral femur content of 241Am: 0.54 ± 0.10 % of ID of ^241Am
[2]; [4]
  % of Reduction over control (liver burden): 49.1%
  % of Reduction over control (skeleton burden): 41.1%
  Contra-lateral femur content of 241Am: 0.48 ± 0.05 % of ID of ^241Am
  Kidney content of 241Am: 0.63 ± 0.07 % of ID of ^241Am
  Liver Burden (% of ID): 8.4 ± 2.0 % of ID
  Liver content of 241Am: 8.4 ± 2.0 % of ID of ^241Am
  Muscle-contra content of 241Am: 0.0078 ± 0.0017 % of ID of ^241Am per gram of muscle-contra
  Muscle-ipsi content of 241Am: 44.3 ± 2.0 % of ID of ^241Am
  Pelt at injection site content of 241Am: 0.84 ± 0.66 % of ID of ^241Am
  Total decorporation (% of ID of 241Am): 26.2 ± 2.7 % of ID of ^241Am
[2]; seven days after single dose, Ca-DTPA 14 mg/kg i.v., C2E5 1000 mg/kg transdermal
  reduction of liver burden of ^241Am versus control group: 49.1%
[2]; [5]
  % of Enhanced decorporation over control: 279.9%
  Cumulative excretion of ^241Am In feces: 7.8 ± 1.2 % of ID
  Cumulative excretion of ^241Am In urine: 18.4 ± 1.8 % of ID
  Cumulative excretion of ^241Am Total: 26.2 ± 2.7 % of ID
[2]; [6]
  ^241Am burden in the ipsi-lateral femur versus no-treatment control: statistically significant reduction
  skeleton burden of ^241Am versus control group: statistically significant reduction
[3]
  solubility of C2E5: 2200 µg/mL
